Assay results reported in patent publication US20100196273A1, “NOVEL AGENT FOR IN VIVO PET IMAGING OF TUMOR PROLIFERATION” (Board of Regents, University of Texas System, priority 2007, published 2010).

Tests used:
Epstein-Barr virus = conditions: reported, Liu et al. 1998; cited from earlier work
[1] = reported, Liu et al. 1998; cited from earlier work
hepatitis B virus (HBV) = conditions: reported, Liu et al. 1998; cited from earlier work
[2] = system: human immunodeficiency virus; conditions: reported, Liu et al. 1998; cited from earlier work
[3] = system: H3255 (slow growing) human NSCLC tumor xenografts; assay: microPET imaging of tumor proliferative activity, H3255 NSCLC xenografts; format: in vivo, nude mice; conditions: 3.7 MBq via tail vein, 2 h post-injection
Description: (§1) All radiotracers were synthesized following literature methods. Two human NSCLC cell lines, H441 (rapidly growing) and H3255 (slow growing) were used to grow (s.c.) tumor xenografts in nude mice. Eight nu/nu mice were injected with 3×10^6 cells (H3255) onto right shoulder, and 3 weeks later, 3×10^6 cells (H441) were injected onto opposite shoulder. When tumors grew approximately 1 cm in diameter, PET imaging with [^18F]-FLT, [^18F]-D-FMAU [^18F]-L-FMAU were performed on three consecutive days. Each animal received 3.7 MBq of radiotracer via the tail vein, then dynamic scan was performed using micro-PET up to 2 hours of post-injection.
(§2) Tumor uptake and tumor-to-muscle (T/M) ratios of [^18F]-FLT, [^18F]-D-FMAU and [^18F]L-FMAU for different tumors are summarized in Table 1. […] On the other hand, tumor-to muscle ratio of [^18F]-FLT accumulation was higher than that for [^18F]-D-FMAU and [^18F]-L-FMAU.

[4] = system: H441 (rapidly growing) human NSCLC tumor xenografts; assay: microPET imaging of tumor proliferative activity, H441 NSCLC xenografts; format: in vivo, nude mice; conditions: 3.7 MBq via tail vein, 2 h post-injection
Description: as §1, §2

[5] = system: Colo205 human colon cancer tumor xenografts; assay: micro-PET imaging of tumor proliferative activity, Colo205 colon cancer xenografts; format: in vivo, nude mice; conditions: 3.7 MBq via tail vein, 2 h post-injection
Description: The radiotracers, [^18F]-FLT, [^18F]-D-FMAU and [^18F]-L-FMAU, were synthesized according literature methods in high specific activity. Human colon cancer cells, Colo205 were used to grow tumor xenografts in nude mice. Four nu/nu mice were injected (s.c.) with 3×10^6 cells onto the shoulder. When tumors were approximately 1 cm in diameter, PET imaging with [^18F]-FLT, [^18F]-D-FMAU [^18F]-L-FMAU were performed on three consecutive days using one tracer at a time. Each animal received 3.7 MBq of radiotracer via the tail vein, then dynamic imaging was performed using micro-PET up to 2 hours of post-injection.
However, tumor-to muscle ratio of [^18F]-FLT accumulation was lower than that of [^18F]-D-FMAU and [^18F]-L-FMAU. [^18F]-L-FMAU had higher uptake and tumor/muscle ratio compared to the D-[^18F]-FMAU, which is probably due to higher resistance to metabolic degradation.

Row | SMILES | antiviral activity against Epstein-Barr virus (Epstein-Barr virus) | cytotoxicity [1] | antiviral activity against hepatitis B virus (hepatitis B virus (HBV)) | antiviral activity against human immunodeficiency virus [2] | Tumor uptake % ID/g [3] | tumor-to-muscle (T/M) ratio [3] | Tumor uptake % ID/g [4] | tumor-to-muscle (T/M) ratio [4] | Tumor uptake % ID/g [5] | tumor-to-muscle (T/M) ratio [5]
1 | Cc1cn([C@H]2O[C@@H](CO)[C@H](O)[C@H]2F)c(=O)[nH]c1=O [L-FMAU, 2′-Deoxy-2′-fluoro-5-methyl-1-β-L-arabinofuranosyl-uracil] | potential antiviral activities | low cytotoxicity | potential antiviral activities | not human immunodeficiency virus | – | – | – | – | – | –
2 | Cc1cn([C@@H]2O[C@H](CO)[C@@H](O)[C@@H]2[18F])c(=O)[nH]c1=O [[^18F]-D-FMAU] | – | – | – | – | 4.49 ± 1.08 % ID/g | 1.96 ± 0.74 | 7.74 ± 1.39 % ID/g | 3.37 ± 1.19 | 2.37 ± 0.58 % ID/g | 1.95 ± 0.37
3 | Cc1cn([C@H]2C[C@H]([18F])[C@@H](CO)O2)c(=O)[nH]c1=O [[^18F]-FLT, [^18F]-3′-deoxy-3′-fluorothymidine] | – | – | – | – | 0.57 ± 0.33 % ID/g | 1.50 ± 0.90 | 5.10 ± 1.45 % ID/g | 12.94 ± 4.38 | 5.20 ± 1.32 % ID/g | 1.51 ± 0.61
4 | Cc1cn([C@H]2O[C@@H](CO)[C@H](O)[C@H]2[18F])c(=O)[nH]c1=O [[^18F]-L-FMAU, 2′ deoxy-2′-[^18F]-fluoro-5-methyl-1-β-L-arabinofuranosyluracil] | – | – | – | – | 1.38 ± 0.81 % ID/g | 1.62 ± 0.50 | 3.13 ± 1.11 % ID/g | 4.15 ± 1.82 | 2.93 ± 0.75 % ID/g | 2.85 ± 0.89
